Biological target: AaIspE (Aquifex aeolicus, UniProt O67060)
Test: crystal structure
Type: binding
Settings: co-crystallized with 4 mM AMP-PNP and 4 mM CDP; substrate (CDPME) site

Chain of AaIspE (O67060 whole entry): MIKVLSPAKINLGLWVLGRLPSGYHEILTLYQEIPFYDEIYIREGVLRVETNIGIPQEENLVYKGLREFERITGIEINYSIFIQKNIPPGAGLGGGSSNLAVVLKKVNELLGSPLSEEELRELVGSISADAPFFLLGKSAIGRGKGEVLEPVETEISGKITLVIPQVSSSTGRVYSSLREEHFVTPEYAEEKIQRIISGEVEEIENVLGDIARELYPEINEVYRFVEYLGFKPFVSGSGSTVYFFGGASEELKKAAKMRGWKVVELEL

`Nc1ccn([C@@H]2O[C@H](COP(=O)(O)OP(=O)(O)O)[C@@H](O)[C@H]2O)c(=O)n1` [CDP] was tested, and the “crystal structure (complex I, 2.1 Å)” value was “In complex I, CDP displays a single conformation in molecule A and three in molecule B”.

— article PMC2655357 (The Febs Journal, 2008)
